Legend:
AS-HBE cells = assay: Short-circuit current in AS-HBE cells (Test Example 3); assay type: cell-based, human; conditions: 250 nM
Experimental: AS-HBE is a human bronchial epithelial (HBE) cell line expressing the first 131 nucleotides of CFTR in the antisense direction (antisense CFTR 16HBE14o- cells, HBE-AS; also called AS-HBE). As a result, AS-HBE cells lack CFTR transcripts and lack functional CFTR. However, AS-HBE cells do express functional ClC-2 in a manner identical to the parental cell line, 16HBE14o- cells, from which they were derived. AS-HBE cells were maintained at 37° C. in 5%/95% CO2/O2 in Minimal Essential Medium (MEM; GIBCO/Invitrogen, Carlsbad, Calif.) supplemented with Earl's salt, L-glutamine (GIBCO/Invitrogen), 10% heat-inactivated fetal bovine serum, 100 units/ml penicillin, 100 μg/ml streptomycin sulfate and 400 μg/ml G-418 (GIBCO/Invitrogen). The cells were grown in air-liquid interface on Biocoat inserts (Fisher Scientific, Chicago, Ill.), coated with human plasma fibronectine (GIBCO/Invitrogen) and vitrogen (Cohesion Technologies, Palo Alto, Calif.).
According to the same manner as described in Example 2, Short-circuit current measurements in the AS-HBE cells were carried out. Changes in short-circuit current (ΔIsc) were normalized to the filter area (0.3 cm^2) and reported as ΔIsc/cm^2.
Test compounds were used at a final concentration of 250 nM.

[1] = target: T1, recombinant human ClC-2 Chloride Channels (Homo sapiens, UniProt P51788); assay: Whole cell patch clamp, ClC-2 transfected HEK cells, current increase (Test Example 4); assay type: cell-based; conditions: 100 nM, change from control
T1 construct: His; T7; expressed in transfected cells; host or cells: HEK-293 (ATCC), pcDNA3.1, G-418 selected
T1 sequence (P51788 1-898): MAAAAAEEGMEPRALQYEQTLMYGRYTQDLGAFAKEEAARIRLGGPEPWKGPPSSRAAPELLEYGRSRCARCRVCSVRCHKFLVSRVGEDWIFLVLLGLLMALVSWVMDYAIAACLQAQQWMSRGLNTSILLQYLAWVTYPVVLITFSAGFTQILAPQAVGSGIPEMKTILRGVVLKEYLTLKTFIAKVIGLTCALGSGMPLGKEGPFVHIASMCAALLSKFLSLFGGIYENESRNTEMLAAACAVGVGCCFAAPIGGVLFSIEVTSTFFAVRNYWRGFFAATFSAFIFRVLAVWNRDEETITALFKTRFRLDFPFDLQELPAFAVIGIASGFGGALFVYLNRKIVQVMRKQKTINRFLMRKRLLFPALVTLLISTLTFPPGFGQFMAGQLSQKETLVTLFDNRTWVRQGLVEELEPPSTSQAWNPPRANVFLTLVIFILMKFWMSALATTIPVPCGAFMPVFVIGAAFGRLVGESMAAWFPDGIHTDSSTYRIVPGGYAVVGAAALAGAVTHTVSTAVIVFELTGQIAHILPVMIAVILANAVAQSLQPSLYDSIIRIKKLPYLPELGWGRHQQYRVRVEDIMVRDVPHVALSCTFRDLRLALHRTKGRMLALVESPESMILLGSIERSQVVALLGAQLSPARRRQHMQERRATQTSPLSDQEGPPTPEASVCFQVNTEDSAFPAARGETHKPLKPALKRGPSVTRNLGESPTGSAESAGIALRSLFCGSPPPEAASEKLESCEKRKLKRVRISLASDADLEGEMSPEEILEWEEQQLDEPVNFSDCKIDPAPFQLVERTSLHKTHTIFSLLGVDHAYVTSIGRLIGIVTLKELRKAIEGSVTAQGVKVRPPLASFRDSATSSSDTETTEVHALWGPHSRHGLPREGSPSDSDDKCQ
Experimental: According to the same manner as described in Example 1, whole cell patch clamp measurements were carried out.
Test compounds were used at a final concentration of 100 nM.

Activation of ClC-2 channels ΔpA/pF [1]	SMILES	Changes in short-circuit currents (Δlsc) (AS-HBE cells)
	CCCCC(F)(F)C1(O)CC[C@H]2[C@@H](CC(=O)[C@@H]2CCCCCCC(=O)NCC)O1 (stereo partly drawn) [Compound 3, N1-ethyl-7-[(2,4aR,5R,7aR)-2-(1,1-difluoropentyl)-2-hydroxy-6-oxoperhydrocyclopenta[b]pyran-5-yl]heptanamide]	2.7 μA/cm^2
	CCCCC(F)(F)C(=O)/C=C/[C@H]1[C@H](O)CC(=O)[C@@H]1CCCCCCC(=O)O [Compound 4, 15-keto-16,16-difluoro-PGE1]	1.0 μA/cm^2
	CCCCCCC(F)(F)C1(O)CC[C@H]2[C@@H](CC(=O)[C@@H]2CCCCCCCCC(=O)OC(C)C)O1 (stereo partly drawn) [Compound 5, Isopropyl (−)-9-[(4aR,5R,7aR)-2-(1,1-difluoroheptyl)-2-hydroxy-6-oxoperhydrocyclopenta[b]pyran-5-yl]nonanoate]	0.3 μA/cm^2
	CCCCC[C@H](O)/C=C/[C@@H]1[C@@H](C/C=C\CCCC(=O)O)[C@@H](O)C[C@H]1O [Compound 6, PGF2α, reference compound]	0.7 μA/cm^2
	CCCCC[C@H](O)/C=C/[C@@H]1[C@H]2C/C(=C/CCCC(=O)[O-])O[C@H]2C[C@H]1O.[Na+] [Compound 7, PGI2-Na, reference compound]	1.0 μA/cm^2
24.6 pA/pF	CCCCC(F)(F)C(O)CC[C@H]1[C@H](O)CC(=O)[C@@H]1CCCCCCC(=O)O (stereo partly shown) [Compound 8, 13,14-dihydro-16,16-difluoro-PGE1]	
38.2 pA/pF	CCCCC(F)(F)C1(O)CC[C@@H]2[C@@H](CCCCCCC(=O)NCC)[C@@H](O)C[C@H]2O1 (stereo partly drawn) [Compound 9, N1-ethyl-7-[(2,4aR,5R,6S,7aR)-2-(1,1-difluoropentyl)-2,6-dihydroxyperhydrocyclopenta[b]pyran-5-yl]heptanamide]	
